Assays:
SW620 cells [1] = test: MTS growth inhibition assay, SW620; conditions: for single agent activity / decrease in proliferation / single agent activity (growth inhibition vs vehicle): SW620, 72 hours; for single agent activity / decrease in proliferation: 100 μmol/L single agent; for single agent activity (growth inhibition vs vehicle): up to 75 μmol/L
Experimental: (§4) The Cell Titer^96 AQueous MTS assay (Promega) was carried out according to the manufacturers guidelines. […] The combination effect was determined by the combination index (CI) method utilizing Calcusyn software (Biosoft, Ferguson, Mo.). Fraction affected (FA) was calculated from the percent growth inhibition: FA=(100−% growth inhibition)/100. CI values <1, synergism; 1-1.2, additive and >1.2, antagonism.
HCT116 and SW620 cells were exposed to increasing concentrations of each agent for 72 hours and growth inhibition was directly compared to vehicle-treated controls.

HCT116 cells [2] = conditions: for single agent activity (growth inhibition vs vehicle): up to 75 μmol/L
[3] = tested on: HCT-8 colorectal cell line model; test: Colony formation assay, HCT-8; assay type: cell-based; conditions: HCT-8, increasing concentrations of compound plus fixed 1 μmol/L FUdR, vs single agents
Experimental: (§1) Colony forming assay showing the ability of colon (SW620, HCT 116), non-small cell lung (A549, H460, H1299 and H358) and breast (MCF7) cancer cells to survive and proliferate following transient 24 hour exposure to single agent PCI 1013, FUdR and combinations. Specifically, cells were seeded at densities between 50 and 100 cells/well in 24-well plates. Twenty-four hours later, cells were treated with increasing concentrations of PCI 10213, a fixed dose of FUdR and combinations of these. After 24 hours, drug was removed, cells were rinsed and allowed to outgrow for 10-14 days. At the conclusion of the outgrowth, cells were fixed in 60% ice cold methanol and stained with 0.1% crystal violet, scanned and counted. Data is presented as percentage of untreated controls (mean±SD). Fraction affected and combination indexes were calculated according to the method of Chou and Talalay where <1 is indicative of a synergistic drug interaction.
Colony forming assays were subsequently performed to evaluate the effectiveness of additional PCI compounds alone and in combination with FUdR at reducing cancer cell viability in the HCT-8 colorectal cell line model. […] Subsequently, increasing concentrations of PCI compounds were combined with a fixed dose of 1 μmol/L FUdR to evaluate the combined drug effect.

HCT116 cells [4] = test: Colony formation assay, HCT116; assay type: cell-based; conditions: for colonies formed, combination with FUdR: HCT116, increasing concentrations of compound plus fixed 0.5 μmol/L FUdR, vs single agents
Experimental: as §1, with “interaction. […]” for “interaction.”
(§2) In colorectal cancer cells, concentrations of PCI 10213 ranging from 3.1 μmol/L to 50 μmol/L were combined with 0.5 μmol/L FUdR in HCT116 cells and 1 μmol/L FUdR in SW620 cells.

A549 cells [5] = test: MTS growth inhibition assay, A549; conditions: A549, 72 hours, 100 μmol/L single agent
Experimental: as §4
(§5) The NSCLC cell lines A549 and H1299 were exposed to increasing concentrations of each agent for 72 hours and growth inhibition was directly compared to vehicle-treated controls.

H1299 cells = test: MTS growth inhibition assay, H1299; conditions: H1299, 72 hours, 100 μmol/L single agent
Experimental: as §4, §5

[6] = biological target: T1, Recombinant human deoxyuridine nucleotidohydrolase (dUTPase) (Homo sapiens, UniProt P33316); test: Fluorescence-based dUTPase inhibition assay (Example 23; 2.5 ng dUTPase, 10 min at 37° C.); assay type: biochemical; design: made in house
T1 sequence (P33316 1-164 isoform P33316-2): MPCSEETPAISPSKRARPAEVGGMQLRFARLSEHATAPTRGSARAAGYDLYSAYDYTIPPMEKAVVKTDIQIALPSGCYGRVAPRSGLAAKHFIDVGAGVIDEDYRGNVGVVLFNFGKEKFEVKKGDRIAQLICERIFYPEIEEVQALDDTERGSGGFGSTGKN
Source text: PCI 10586, 10585 and 10213 were suspended in DMSO at a concentration of 100 mmol/L, fluorodeoxyuridine (FUdR) was obtained from Sigma (St Louis, Mo.) and maintained in sterile double-distilled water at stock concentrations of 50 mmol/L. Recombinant human deoxyuridine nucleotidohydrolase (dUTPase) was expressed and purified as described previously [Please provide reference or confirm as noted above].
The diastereomer compounds were isolated by preparative chiral HPLC and screened in a novel fluorescence-based assay as described in Wilson et al. (2011) Nucleic Acids Res., September 1 39(17). […] The subsequent fluorescence detection step involved five 10 min cycles at 60° C. to completion.

[7] = tested on: colorectal (HCT116), breast (MCF-7) and non-small cell lung (H1299, A549, H358 and H460) cell line models; test: Colony formation assay, all cell lines evaluated; assay type: cell-based
Experimental: as §1
(§3) Subsequently, increasing concentrations of PCI 10213 were combined with a fixed dose of FUdR to evaluate the combined drug effect. In NSCLC cells, concentrations of PCI 10213 ranging from 3.1 μmol/L to 25 μmol/L were combined with 1 μmol/L FUdR. […] The effectiveness of this combination was pronounced in A549 and H460 cells where 12.5 and 25 μmol/L PCI 10213 combined with 1 μmol/L FUdR reduced cell viability by >95% compared to vehicle-treated controls.

A549 cells [8] = test: Colony formation assay, A549; assay type: cell-based; conditions: A549, 12.5 and 25 μmol/L compound plus 1 μmol/L FUdR, vs vehicle-treated controls
Experimental: as §1, §3

[9] = biological target: T1, Recombinant human deoxyuridine nucleotidohydrolase (dUTPase); test: Fluorescence-based dUTPase inhibition assay (Example 19; 5 ng dUTPase, 8 min at 37° C.)
Source text: All drugs stocks were aliquoted and diluted as appropriate prior to use. The oligonucelotide primer, templates and fluorophore- and quencher-labeled detection probes are synthesized by Integrated DNA Technologies (Coralville, Iowa), subjected to polyacrylamide gel electrophoresis purification and reconstituted in Omnipur sterile nuclease-free water (EMD Chemicals USA, Gibbstown N.J.) at a stock concentration of 100 μmol/L. The two non-emissive (dark) quenching molecules incorporated into the detection probes include the Iowa black fluorescein quencher (IBFQ; absorption max 531 nm) and ZEN (non-abbreviation; absorption max 532 nm). The fluorescent label utilized was 6-FAM (5′-carboxyfluorescein; excitation max.=494 nm, emission max.=520 nm). Probes were further diluted to a working stock of 10 μmol/L and aliquoted to avoid repeated freeze/thaw cycles. AmpliTaq Gold DNA Polymerase, GeneAmp 10×PCR Buffer 2, MgCl2 and MicroAmp Optical 96-well Reaction Plates were purchased from Applied Biosystems (Carlsbad, Calif.). dNTPs were purchased individually at stock concentrations of 100 mmol/L from New England Biolabs at HPLC-certified >99% purity (Ipswich, Mass.).
Reaction mixtures contained primer, probe and template at an equimolar final concentration of 0.4 μmol/L. Magnesium chloride (MgCl2) was included at a final concentration of 2 mmol/L. Non-limiting dNTPs were included in the reaction mix in excess at a final concentration of 100 μmol/L (dUTP/dTTP was excluded). AmpliTaq Gold DNA polymerase was added at 0.875 U/reaction, 2.5 μl of 10×PCR buffer 2 added and nuclease-free ddH2O added to a final reaction volume of 25 μl. For dUTP inhibition analysis, the volume of ddH2O was further modified to accommodate an additional 1 μl of dUTPase (10 ng/μl) and 1 μl of inhibitor or DMSO control. Thermal profiling and fluorescence detection was performed using the ‘isothermal’ program on board an Applied Biosystems 7500 Real-Time PCR System. For analysis of dNTPs, the thermal profile consisted of an 8 min 37° C. step followed by a 10 min 95° C. step to ‘hot-start’ the Taq polymerase and a primer extension time of up to 30 min at 60° C. depending on the application. Raw fluorescence spectra for 6-FAM was measured using filter A at specified time intervals to follow assay progression using Sequence Detection Software (SDS Version 1.4, Applied Biosystems) and exported and analyzed in Microsoft Excel (Microsoft, Redmond Wash.) and Prism (GraphPad Software, La Jolla Calif.). In all cases, fluorescence values for blank reactions (limiting dNTP omitted) were subtracted to give normalized fluorescence units (NFU) to account for background fluorescence.
The assay employs a DNA polymerase-based approach utilizing an oligonucleotide template with 3 distinct regions: a 3′ primer binding region, a mid-template dUTP/thymidine triphosphate (TTP) detection region and a 5′ 6-Flavin adenine mononucleotide (FAM)-labeled probe binding region that incorporates a black hole quenching moiety.
reaction, the probe and primer hybridize to the oligonucleotide template to form the template:primer:probe complex. When Taq polymerase binds to the primer in the TPP complex and dUTP is present, successful extension of the nascent strand occurs and the inherent 5′ to 3′ exonuclease activity of Taq polymerase cleaves and displaces the 6-FAM-labeled probe in a 5′ to 3′ direction, releasing the 6-FAM fluorophore from its proximity to the three quenchers.

H460 cells = test: Colony formation assay, H460; assay type: cell-based; conditions: H460, 12.5 and 25 μmol/L compound plus 1 μmol/L FUdR, vs vehicle-treated controls
Experimental: as §1, §3

[10] = tested on: NSCLC cells (H1299, A549, H358 and H460); test: Colony formation assay, NSCLC cells; assay type: cell-based; conditions: 3.1 to 25 μmol/L compound plus 1 μmol/L FUdR, vs single agents
Experimental: as §1, §3

SW620 cells [11] = test: Colony formation assay, SW620; assay type: cell-based
Experimental: as §1, §2

SMILES: O=c1[nH]cc(F)c(=O)[nH]1 [5-FU, 5-fluorouracil, reference compound]
- growth inhibition, 5-FU alone (SW620 cells [1]; SW620, 0 to 100 μmol/L): dose-dependent increases in growth inhibition
- growth inhibition, 5-FU alone (HCT116 cells [2]; HCT116, 0 to 100 μmol/L): dose-dependent increases in growth inhibition

SMILES: CC[C@@](O)(Cn1nncc1CCCCC1C(=O)Nc2ncccc21)c1ccc(F)c(OCC2CC2)c1 (stereo partly drawn) [PCI 10930]
- colonies formed / combined drug effect with FUdR [3]: Substantial reductions in colonies formed

SMILES: CC[C@@](O)(Cn1nncc1CCCCC1CCC(=O)NC1=O)c1ccc(F)c(OCC2CC2)c1 (stereo partly drawn) [PCI 10951]
- colonies formed, combination with FUdR (HCT116 cells [4]): Substantial reductions in colonies formed
- colonies formed / combined drug effect with FUdR [3]: Substantial reductions in colonies formed

SMILES: CC[C@@](O)(Cn1nncc1CCCCc1cnc2c(c1)CCC(=O)N2)c1ccc(F)c(OCC2CC2)c1 [PCI 10928]
- colonies formed / combined drug effect with FUdR [3]: Substantial reductions in colonies formed

SMILES: CC[C@@](O)(Cn1nncc1CCCCCC1CCC(=O)NC1=O)c1ccc(F)c(OCC2CC2)c1 (stereo partly drawn) [PCI 10952]
- colonies formed, combination with FUdR (HCT116 cells [4]): modest reductions in colonies formed

SMILES: C[C@@H](NS(=O)(=O)CC/C=C/CC1SC(=O)NC1=O)c1cccc(OCC2CC2)c1 (stereo partly drawn) [PCI 10214]
- single agent activity / decrease in proliferation (SW620 cells [1]): ~30%
- single agent activity (growth inhibition vs vehicle) (SW620 cells [1]): neither PCI 10213 or 10214 had any single agent activity
- single agent activity (growth inhibition vs vehicle) (HCT116 cells [2]; HCT116, 72 hours): little to no single agent activity
- decrease in growth / reduction in proliferation (A549 cells [5]): ~25%
- decrease in cell proliferation (H1299 cells): ≤ 40%

SMILES: CC[C@@](O)(Cn1nncc1CCCCNC1(C)CCC(=O)NC1=O)c1ccc(F)c(OCC2CC2)c1 (stereo partly drawn) [PCI 10933]
- colonies formed / combined drug effect with FUdR [3]: Substantial reductions in colonies formed

SMILES: C[C@@H](NS(=O)(=O)CC/C=C/CC1CCC(=O)NC1=O)c1cccc(OCC2CC2)c1 (mixture of isomers) [PCI 10213]
- inhibition at 1.3 µM ([6]; 1.3 μmol/L compound): 4.7%
- inhibition at 2.6 µM ([6]; 2.6 μmol/L compound): 9.6%
- inhibition at 5.2 µM ([6]; 5.2 μmol/L compound): 14.5%
- inhibition at 10.4 µM ([6]; 10.4 μmol/L compound): 24.9%
- inhibition at 20.8 µM ([6]; 20.8 μmol/L compound): 30%
- inhibition at 41.7 µM ([6]; 41.7 μmol/L compound): 45.5%
- inhibition at 83.3 µM ([6]; 83.3 μmol/L compound): 54.6%
- viability, combination with FUdR (HCT116 cells [4]; HCT116, 50 μmol/L compound plus FUdR): complete loss of viability
- colonies, all combinations with FUdR (HCT116 cells [4]; HCT116, 3.1 to 50 μmol/L compound plus 0.5 μmol/L FUdR): strong synergistic reduction in colonies
- reduction of colony formation, combination with FUdR (HCT116 cells [4]; HCT116, 12.5 and 25 μmol/L compound plus 0.5 μmol/L FUdR): > 95%
- number of colonies formed, single agent (HCT116 cells [4]; HCT116, PCI 10213 3.1 to 50 μmol/L or FUdR 0.5 μmol/L alone): neither PCI 10213 or the fixed dose of FUdR single agent had any significant effect on the number of colonies formed
- number of colonies formed, compound alone ([7]; 3.1 to 25 μmol/L single agent): no significant effects on the number of colonies formed
- reduction of cell viability, combination with FUdR (A549 cells [8]): > 95%
- IC50 [9]: 7.2 µM
- inhibition at 1.3 µM ([9]; 1.3 umol/L compound): 28%
- inhibition at 2.6 µM ([9]; 2.6 umol/L compound): 31.6%
- inhibition at 5.2 µM ([9]; 5.2 umol/L compound): 40.9%
- inhibition at 10.4 µM ([9]; 10.4 umol/L compound): 60.3%
- inhibition at 20.8 µM ([9]; 20.8 umol/L compound): 64.5%
- inhibition at 41.7 µM ([9]; 41.7 umol/L compound): 73.8%
- % Inhibition ([9]; 83.3 umol/L compound): 86.1%
- inhibition at 83.3 µM ([9]; 83.3 umol/L compound): 86%
- growth inhibition as a single agent (SW620 cells [1]; SW620, 25 μmol/L single agent): no detectable effect on growth inhibition
- single agent activity / decrease in proliferation (SW620 cells [1]): ~30%
- single agent activity (growth inhibition vs vehicle) (SW620 cells [1]): neither PCI 10213 or 10214 had any single agent activity
- combined effect with 5-FU on growth inhibition (SW620 cells [1]; SW620, fixed 25 μmol/L compound plus increasing 5-FU, up to 25 μmol/L 5-FU): additive and synergistic increases in growth inhibition
- growth inhibition as a single agent (HCT116 cells [2]; HCT116, 25 μmol/L single agent): no detectable effect on growth inhibition
- decrease in growth / reduction in proliferation (HCT116 cells [2]; HCT116, 72 hours, 100 μmol/L single agent): 28%
- single agent activity (growth inhibition vs vehicle) (HCT116 cells [2]; HCT116, 72 hours): little to no single agent activity
- combined effect with 5-FU on growth inhibition (HCT116 cells [2]; HCT116, fixed 25 μmol/L compound plus increasing 5-FU, up to 25 μmol/L 5-FU): additive and synergistic increases in growth inhibition
- decrease in growth / reduction in proliferation (A549 cells [5]): ~25%
- reduction of cell viability, combination with FUdR (H460 cells): > 95%
- decrease in cell proliferation (H1299 cells): 40%
- colonies formed, combination with FUdR [10]: highly significant reductions in colonies formed
- reduction of colony formation, combination with FUdR (SW620 cells [11]; SW620 (strongly FUdR-resistant), 12.5 and 25 μmol/L compound plus FUdR (0.5 μmol/L in the sentence)): > 50%
- colonies, all combinations with FUdR (SW620 cells [11]; SW620, 3.1 to 50 μmol/L compound plus 1 μmol/L FUdR): strong synergistic reduction in colonies
- number of colonies formed, single agent (SW620 cells [11]; SW620, PCI 10213 3.1 to 50 μmol/L or FUdR 1 μmol/L alone): neither PCI 10213 or the fixed dose of FUdR single agent had any significant effect on the number of colonies formed

SMILES: CC[C@@](O)(Cn1nncc1CCCCC1Cc2cccc(OC)c2NC1=O)c1ccc(F)c(OCC2CC2)c1 (stereo partly drawn) [PCI 10929]
- colonies formed / combined drug effect with FUdR [3]: Substantial reductions in colonies formed

SMILES: CC[C@@](O)(Cn1nncc1CCCNC1CCC(=O)NC1=O)c1ccc(F)c(OCC2CC2)c1 (stereo partly drawn) [PCI 10927]
- colonies formed / combined drug effect with FUdR [3]: Substantial reductions in colonies formed

SMILES: CC[C@@](O)(Cn1nncc1CCCCn1ccc(=O)[nH]c1=O)c1ccc(F)c(OCC2CC2)c1 [PCI 10950, reference compound]
- combined drug effect with fixed doses of FUdR ([7]; all cell lines examined (cell lines not named at b507)): strong synergy
- colonies formed / combined drug effect with FUdR [3]: strong synergy

— patent US10889563B2, “Deoxyuridine triphosphatase inhibitors” (University of Southern California, priority 2013, dated 2021)
